Data published in patent US5464848A, “1,2,4-oxadiazolyl-phenoxyalkylisoxazoles and their use as antiviral agents” (Sterling Winthrop Inc., priority 1993, dated 1995).
≈ marks a conversion by molar mass, not a printed value.

Legend:
[1] = test system: human rhinovirus serotypes, panel B; assay: MIC50/MIC80 over panel B of 10 human rhinovirus serotypes (HeLa cell CPE); type: cell-based; conditions: for MIC80: minimum concentration required to inhibit 80% of the tested serotypes
Method: (§1) They are useful in inhibiting virus replication in vitro and are primarily active against picornaviruses, including enteroviruses, echovirus and coxsackie virus, especially rhinoviruses. […] The test procedure used was as follows: The MIC values were determined by an automated tissue culture infectious dose 50% (TCID-50) assay. HeLa cells in monoloyers in 96-well cluster plates were infected with a dilution of virus which had been shown empirically to produce 80% to 100% cytopathic effect (CPE) in 3 days in the absence of drug. The compound to be tested was serially diluted through 10, 2-fold cycles and added to the infected cells. After a 3 day incubation at 33° C. and 2.5% carbon dioxide, the cells were fixed with a 5% solution of glutaraldehyde followed by staining with a 0.25% solution of crystal violet in water. The plates were then rinsed, dried, and the amount of stain remaining in the well (a measure of intact cells) was quantitated with an optical density reader. The MIC was determined to be the concentration of compound which protected 50% of the cells from virus-induced CPE relative to an untreated virus control.
(§2) In the above test procedures, representative compounds of formula I were tested against some the serotypes from either a panel of fifteen human rhinovirus (HRV) serotypes, (noted in the table as panel T) namely, HRV-2, -14, -1A, -1B, -6, -21, -22, -15, -25, -30, -50, -67, -89, -86 and -41 or against some of the serotypes from a panel of 10 human rhinovirus serotypes namely HRV-3, -4, -5, -9, -16, -18, -38, -66, -75 and -61, (noted in the table as panel B) and the MIC value, expressed in micrograms per milliliter ([…]), for each rhinovirus serotype was determined for each virus, example 1e is given as an example of the data. Then MIC50 and MIC80 values, which are the minimum concentrations of the compound required to inhibit 50% and 80%, respectively, of the tested serotypes were determined.
(§3) The following Table gives the test results for representative compounds of the invention. The panel of viruses used in the test appears before the MIC80 and MIC50 figure and the number of serotypes which the compound is tested against (N) is indicated after the MIC80 and MIC50 figure.

[2] = test system: human rhinovirus (HRV) serotypes, panel T; assay: MIC50/MIC80 over panel T of fifteen human rhinovirus serotypes (HeLa cell CPE); type: cell-based; conditions: for MIC50: minimum concentration required to inhibit 50% of the tested serotypes; for MIC80: minimum concentration required to inhibit 80% of the tested serotypes
Method: as §1, §2, §3

| Compound | MIC50 ([2]; Human rhinovirus sp., 72 h) [µg/mL] | MIC80 [2] [µg/mL] | further results |
| --- | --- | --- | --- |
| Cc1cc(CCCOc2c(F)cc(-c3noc(C(F)(F)F)n3)cc2I)on1 [Example 60e, 5-{3-[2-Fluoro-6-iodo-4-(5-trifluoromethyl-1,2,4-oxadiazol-3-yl)phenoxy]propyl}-3-methylisoxazole] |  |  | MIC50 ([1]; Human rhinovirus sp., 72 h): 99 µg/mL (≈ 199 µM); MIC80 ([1]; panel B): 0.4145 µg/mL (≈ 0.834 µM) |
| 5-{3-[2,6-Dimethyl-4-(5-difluoromethyl-1,2,4-oxadiazol-3-yl)phenoxy]-propyl}-3-methylisoxazole [Example 49g] |  |  | MIC50 ([1]; panel B, minimum concentration required to inhibit 50% of the tested serotypes): 99 µg/mL; MIC80 ([1]; panel B): 49.859 µg/mL |
| Cc1cc(CCCOc2c(C)cc(-c3noc(C(F)(F)F)n3)cc2F)on1 [Example 60h, 5-{3-[2-Fluoro-6-methyl-4-(5-trifluoromethyl-1,2,4-oxadiazol-3-yl)phenoxy]propyl}-3-methylisoxazole] |  |  | MIC50 ([1]; Human rhinovirus sp., 72 h): 0.328 µg/mL (≈ 0.851 µM); MIC80 ([1]; panel B): 0.0315 µg/mL (≈ 0.0818 µM) |
| Cc1cc(CCCOc2c(C)cc(-c3noc(C(F)(F)F)n3)cc2Cl)on1 [Example 63d, 5-{3-[4-(5-Trifluoromethyl-1,2,4-oxadiazol-3-yl)2-chloro-6-methylphenoxy]propyl}-3-methylisoxazole] |  |  | MIC50 ([1]; Human rhinovirus sp., 72 h): 0.304 µg/mL (≈ 0.757 µM); MIC80 ([1]; panel B): 0.13 µg/mL (≈ 0.324 µM) |
| Cc1cc(-c2noc(C(F)(F)F)n2)cc(C)c1OCCCc1onc(C)c1Br [Example 57] |  |  | MIC50 ([1]; Human rhinovirus sp., 72 h): 99 µg/mL (≈ 215 µM); MIC80 ([1]; panel B): 99 µg/mL (≈ 215 µM) |
| CSc1nc(-c2cc(C)c(OCCCc3cc(C)no3)c(C)c2)no1 [Example 58d, 5-{3-[2,6-dimethyl-4-(5-methylthio-1,2,4-oxadiazol-3-yl)phenoxy]-propyl}-3-methylisoxazole] | 99 (≈ 275 µM) | 99 (≈ 275 µM) |  |
| Cc1cc(CCCOc2c(C)cc(-c3noc(C#N)n3)cc2C)on1 [Example 39, 5-{3-[4-(5-Cyano-1,2,4-oxadiazol-3-yl)-2,6-dimethylphenoxy]-propyl}-3-methylisoxazole] | 99 (≈ 293 µM) | 1.848 (≈ 5.46 µM) |  |
| Cc1cc(CCCOc2ccc(-c3noc(C(F)(F)F)n3)cc2)on1 [Example 32c, 3-Methyl-5-{3-[4-(5-trifluoromethyl-1,2,4-oxadiazol-3-yl) -phenoxy]propyl}isoxazole] | 99 (≈ 280 µM) | 2.86 (≈ 8.1 µM) |  |
| Cc1cc(-c2noc(C3CC3)n2)cc(C)c1OCCCc1cc(C2CC2)no1 [Example 27] | 0.142 (≈ 0.374 µM) | 0.087 (≈ 0.229 µM) |  |
| CCOC(=O)c1nc(-c2cc(C)c(OCCCc3cc(C)no3)c(C)c2)no1 [Example 7, 5-{3-[2,6-Dimethyl-4-(5-ethoxycarbonyl-1,2,4-oxadiazol-3-yl)phenoxy]propyl}-3-methylisoxazole] | 99 (≈ 257 µM) | 99 (≈ 257 µM) |  |
| Cc1cc(-c2noc(C3CC3)n2)cc(C)c1OCCCc1cc(OCCO)no1 [Example 44, 5-{3-[4-(5-Cyclopropyl-1,2,4-oxadiazol-3-yl)-2,6-dimethylphenoxy]propyl}-3-(2-hydroxyethoxy)isoxazole] |  | 0.385 (≈ 0.964 µM) |  |
| Cc1cc(CCCOc2c(C)cc(-c3noc(C(F)(F)Cl)n3)cc2C)on1 [Example 54a, 5-{3-[2,6-Dimethyl-4-(5-difluorochloromehyl-1,2,4-oxadiazol-3-yl)phenoxy]-propyl}-3-methylisoxazole] |  |  | MIC50 ([1]; Human rhinovirus sp., 72 h): 49.6 µg/mL (≈ 125 µM); MIC80 ([1]; panel B): 0.016 µg/mL (≈ 0.0402 µM) |
| CCOC(=O)c1cc(CCCOc2c(C)cc(-c3noc(C(F)(F)F)n3)cc2C)on1 [Example 56d, 5-{3-[2,6-Dimethyl-4-(5-trifluoromethyl-1,2,4-oxadiazol-3-yl)phenoxy]propyl}-3-(ethoxycarbonyl)isoxazole] | 1.47 (≈ 3.33 µM) | 0.634 (≈ 1.44 µM) |  |
| Cc1cc(CCCOc2c(C)cc(-c3nc(N)no3)cc2C)on1 [Example 47] | 5.14 (≈ 15.7 µM) | 0.057 (≈ 0.174 µM) |  |
| 5-{3-[4-(5-Trifluoromethyl-1,2,4-oxadiazol-3-yl)2-cyano-6-chlorophenoxy]-propyl}-3-methylisoxazole [Example 62f] |  | 0.09 | MIC50 [2]: 0.213 µg/mL |
| Cc1cc(-c2noc(C3CC3)n2)cc(C)c1OCCCc1cc(O)no1 [Example 36d, 5-{3-[4-(5-cyclopropyl-1,2,4-oxadiazol-3-yl)-2,6-dimethylphenoxy]propyl}-3-hydroxyisoxazole] | 1.32 (≈ 3.72 µM) | 0.371 (≈ 1.04 µM) |  |
| Cc1cc(CCCOc2c(C)cc(-c3noc(CC(F)(F)F)n3)cc2C)on1 [Example 43, 5-{3-[2,6-Dimethyl-4-(5-(2,2,2-trifluoroethyl)-1,2,4-oxadiazol-3-yl)phenoxy]propyl}-3-methylisoxazole] | 99 (≈ 250 µM) | 99 (≈ 250 µM) |  |
| Cc1cc(CCCOc2c(C)cc(-c3noc(C4CC4)n3)cc2C)on1 [Example 4, 5-{3-[4-(5-Cyclopropyl-1,2,4-oxadiazol-3-yl) -2,6-dimethylphenoxy]propyl}-3-methylisoxazole] | 3.15 (≈ 8.9 µM) | 0.057 (≈ 0.161 µM) |  |
| Cc1cc(CCCOc2c(C)cc(-c3noc(C(F)F)n3)cc2Cl)on1 [Example 49d, 5-{3-[2,-Methyl-6-Chloro-4-(5-difluoromethyl-1,2,4-oxadiazol-3-yl)phenoxy]-propyl}-3-methylisoxazole] | 99 (≈ 258 µM) | 99 (≈ 258 µM) |  |
| COCc1cc(CCCOc2c(C)cc(-c3noc(C(F)(F)F)n3)cc2C)on1 [Example 21, 5-{3-[2,6-Dimethyl-4-(5-trifluoromethyl-1,2,4-oxadiazol-3-yl)phenoxy]propyl}-3-(methoxymethyl) -isoxazole] | 1.56 (≈ 3.8 µM) | 0.0575 (≈ 0.14 µM) |  |
| Cc1cc(-c2noc(C(F)(F)F)n2)cc(C)c1OCCCc1cc(C2CC2)no1 [Example 23, 3-Cyclopropyl-5-{3-[2,6-dimethyl-4-(5-trifluoromethyl-1,2,4-oxadiazol-3-yl)phenoxy]propyl}-isoxazole] | 0.625 (≈ 1.53 µM) | 0.204 (≈ 0.501 µM) |  |
| Cc1cc(CCCOc2c(C)cc(-c3noc(=N)[nH]3)cc2C)on1 [Example 15, 5-{3-[4-(5-Imino-4,5-dihydro-1,2,4-oxadiazol-3-yl)-2,6-dimethylphenoxy]propyl}-3-methylisoxazole] | 99 (≈ 301 µM) | 99 (≈ 301 µM) |  |
| CCc1cc(CCCOc2c(C)cc(-c3noc(C(F)(F)F)n3)cc2C)on1 [Example 28c, 5-{3-[2,6-Dimethyl-4-(5-trifluoromethyl-1,2,4-oxadiazol-3-yl)phenoxy]propyl}-3-ethylisoxazole] | 0.278 (≈ 0.703 µM) | 0.119 (≈ 0.301 µM) |  |
